Laboratory results: patent US20240315994A1, “SMALL MOLECULE MODULATORS OF FERROPTOSIS” (ARPEGGIO BIOSCIENCES, INC., priority 2021, published 2024)

How the values were obtained:
Format in all cases: cell-based
[1] = system: 786-O Renal Clear Cell Carcinoma cells; assay: Bodipy-C11 lipid peroxidation staining in 786-O cells; conditions: for lipid peroxidation (Bodipy-C11 staining): 8216 6.25 μM 2 h, 1816 25 μM 1 h, 3362 12.5 μM 2 h, 0973 50 μM 2 h, 1962 50 μM 2 h
Procedure: To validate that the five ferroptosis-inducing compounds identified in FIG. 3 do cause lipid peroxidation, we used Bodipy-C11 staining in 786-O Renal Clear Cell Carcinoma cells to visualize using microscopy the presence (or absence) of oxidized lipids. Biodipy-C11 is a dye that traffics to lipid membranes and harbors a fluorophore that emits at different wavelengths depending on its oxidation status. Briefly, 786-O Renal Clear Cell Carcinoma cells were plated 24 hours prior to treatment with each of the five ferroptosis-inducing compounds (8216, 1816, 3362, 1962, and 0973) for one or two hours. DMSO was used as a control treatment. Following the treatment period, Hoechst stain (10 μM; a nuclear counterstain) and Bodipy-C11 (200 μM) were added to the cells for 30 minutes and then the cells were imaged using the Opera Phenix high content screening microscope.
FIG. 4B is a panel of plots 410 showing fluorescence images of Biodipy-C11 staining of cells treated with compound 8216 and the controls RSL3 and sodium arsenite. Briefly, 786-O Renal Clear Cell Carcinoma cells were plated 24 hours prior to treatment with compound 8216 and the controls RSL3 and sodium arsenite for 1 hour with and without 1.5 μM of ferrostatin-1. Bodipy C-11 undergoes a shift in emission when lipids become oxidized, non-oxidized lipids are represented in orange and oxidized lipids are green; Hoescht was included as nuclear stain to represent cell bodies.

[2] = system: HT-1080 fibrosarcoma cells; assay: HT-1080 viability dose response in presence or absence of ferrostatin-1 or liproxstatin-1; conditions: HT-1080 cells, 100 μM to 100 nM, 48 hours, with/without 1.5 μM ferrostatin-1
Procedure: To determine whether the reduction in cell viability by the compounds identified in FIG. 1 is driven by induction of ferroptosis, we performed dose response curves for each compound in the presence or absence of ferrostatin-1 or liproxstatin-1, which prevent ferroptosis by functioning as radical trapping antioxidants at cellular membranes. Briefly, HT-1080 fibrosarcoma cells were plated 24 hours prior to treatment with a range of concentrations of each inhibitor compound ranging from 100 μM to 100 nM in the presence or absence of 1 μM liproxstatin-1 or 1.5 µM ferrostatin-1. Cell Titer Glo® was used to read out cell viability after 48 hours compound exposure. Data was collected in triplicate.
Compounds from the Enamine covalent inhibitor library with similar structures to compounds 8216, 6666 or 1816 were further screened for inducing cell death via ferroptosis. Briefly, HT-1080 fibrosarcoma cells were plated on black-sided clear bottom plates 24 hours prior to treatment, with or without the addition of 2× ferrostatin-1, which inhibits the process of ferroptosis and rescues cells from undergoing this form of cell death. Compounds were diluted in DMSO and media then added to the cells for a total of 24 hours at which point cell viability was read out via Cell Titer Glo. Compounds were tested at […] ranging from 50 μM to 5 nM at half log dilutions.
FIG. 14 is a panel of plots 1400 showing relative viability of HT-1080 fibrosarcoma cells exposed to 15 inhibitor compounds with similar structures to 8216, 6666, or 1816 tested over a range of concentrations from 50 μM to 5 nM at half log dilutions in the presence of (red line) and absence of (black line) 1.5 μM ferrostatin-1. Ferrostatin-1 is a lipophilic antioxidant which inhibits the process of ferroptosis and rescues cells from undergoing this form of cell death. The black line is the relative HT-1080 fibrosarcoma cell viability in the absence of ferrostatin-1 and the red line is the relative HT-1080 fibrosarcoma cell viability in the presence of 1.5 μM ferrostatin-1. HT-1080 fibrosarcoma cells were plated on side-blackened, clear bottom plates 24 hours prior to treatment, with or without the addition of 2× ferrostatin-1. Each compound was diluted in DMSO and media and then added to the cells for a total of 24 hours, at which point cell viability was read out via Cell Titer Glo.

[3] = system: HK-2 kidney epithelial cells; assay: HK-2 kidney epithelial cell viability dose response (Cell Titer Glo); conditions: healthy HK-2 vs cancer HT-1080 cells
Procedure: To test whether the ferroptosis-inducing compounds 8216 or 1962 display selectivity for cancer cells we performed a dose response study in HK-2 kidney epithelial cells. HK-2 kidney epithelial cells are a non-cancerous cell line that is commonly used as a “healthy” control in ferroptosis experiments. Briefly, HK-2 kidney epithelial cells were plated 24 hours prior to treatment with concentrations of the ferroptosis-inducing compounds 8216 or 1962 ranging from 10 µM to 10 nM. The ferroptosis-inducing compound RSL3 was used as a positive control. As an additional control, we included a non-specific inducer of apoptosis, staurosporine. Cell Titer Glo® was used to read out cell viability after 48 hours of compound exposure. Data was collected in triplicate.
To determine whether the reduction in viability of HK-2 renal epithelial cells exposed to compounds 8216 or 1962 is driven by induction of ferroptosis, we performed dose response curves for each compound in the presence or absence of ferrostatin-1. We also compared the EC50s for each compound between healthy cells (HK-2 renal epithelial cells) and cancer cells (HT-1080 fibrosarcoma cells) to determine a therapeutic window for healthy vs diseased cells. […] Cell Titer Glo® was used to read out cell viability after 48 hours of compound exposure. […]

[4] = system: HT-1080 fibrosarcoma cells; assay: Bodipy C-11 lipid peroxidation imaging in HT-1080 cells; conditions: 10 μM, 1 hour, with or without 1.5 μM ferrostatin-1, ferrostatin-1 rescued
Procedure: Compounds 6666, 6047, […], 8216, and 8147 were also evaluated for inducing lipid peroxidation in HT-1080 fibrosarcoma cells in the presence or absence of 1.5 µM ferrostatin-1. Briefly, HT-1080 fibrosarcoma cells were treated with 10 µM of compound with or without 1.5 μM ferrostatin-1 and incubated at 37° C. for 1 hour. Bodipy C-11 and Hoescht stain were then added to the media, the cells were allowed to incubate for an additional 30 minutes and then were imaged on the Opera Phenix confocal screening system.

Row | SMILES | lipid peroxidation (Bodipy-C11 staining) [1] | cell death and rescue by ferrostatin-1 [2] | Bodipy C-11 emission shift (lipid oxidation) ([1]; 1 hour, with and without 1.5 μM ferrostatin-1) | therapeutic window (HK-2 vs HT-1080 EC50 difference) [3] | lipid peroxidation (Bodipy C-11 emission shift) [4]
1 | CCCCCN(C(=O)CCl)c1c(N)n(CCCC)c(=O)[nH]c1=O [Compound 1816] | some degree of lipid peroxidation was observed | cell death that was rescued by the addition of the antioxidant ferrostatin-1 |  |  | 
2 | O=C(CCl)N1c2ccccc2OC[C@@H]1c1ccccc1 [Compound 1962] | some degree of lipid peroxidation was observed | cell death that was rescued by the addition of the antioxidant ferrostatin-1 |  |  | 
3 | CCOc1ccc(C[C@@H]2c3cc(OCC)c(OCC)cc3CCN2C(=O)CCl)cc1OCC [Compound 3362] | some degree of lipid peroxidation was observed | cell death that was rescued by the addition of the antioxidant ferrostatin-1 |  |  | 
4 | O=C(CCl)N(Cc1ccc(F)cc1)C1CCCCC1 [Compound 8216] | some degree of lipid peroxidation was observed | cell death that was rescued by the addition of the antioxidant ferrostatin-1 | shift in emission color from orange to green | comparable to that of RSL3 | shift in emission reflective of lipid peroxidation
